Test results as given in US7101677B1, “Receptor assay” (University Court of the University of Glasgow, priority 1999, dated 2006).
Substitutions are numbered along the chain they refer to.

Columns and labels:
[1] = biological target: T1, wild type hamster α1b-adrenoceptor/GFP fusion construct (Mesocricetus auratus, UniProt P18841); assay: Confocal microscopy, wild type α1b-adrenoceptor-GFP; format: cell-based; settings: 1 μM for 24h
T1 construct: expressed in transfected cells
T1 sequence (P18841 1-515): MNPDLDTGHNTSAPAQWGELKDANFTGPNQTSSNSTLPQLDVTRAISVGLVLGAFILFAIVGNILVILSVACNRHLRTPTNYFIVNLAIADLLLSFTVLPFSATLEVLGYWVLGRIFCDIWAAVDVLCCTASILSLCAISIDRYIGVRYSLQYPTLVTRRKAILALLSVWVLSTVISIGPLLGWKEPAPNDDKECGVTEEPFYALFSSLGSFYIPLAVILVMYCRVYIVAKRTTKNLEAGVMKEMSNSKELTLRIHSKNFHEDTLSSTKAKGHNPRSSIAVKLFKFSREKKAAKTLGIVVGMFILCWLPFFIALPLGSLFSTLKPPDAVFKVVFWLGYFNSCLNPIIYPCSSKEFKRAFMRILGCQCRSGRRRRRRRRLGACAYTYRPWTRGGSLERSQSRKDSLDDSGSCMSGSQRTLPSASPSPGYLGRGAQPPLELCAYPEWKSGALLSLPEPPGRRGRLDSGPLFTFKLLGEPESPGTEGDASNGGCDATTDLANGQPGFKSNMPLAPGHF
Description: (§1) Cells expressing either the 3CAM (10A) or wild type (10B) hamster α1b-adrenoceptor grown on glass cover slips were treated with vehicle (a), phentolamine (b), WB4101 (c) or HV723 (d) (all at 1 μM) for 24h. The cells were then visualised on a confocal microscope.
(§2) The images were manipulated with Zeiss LSM or MetaMorph software. Two different protocols for preparation of cells were used. When examining the time course of internalisation and recycling live cells were used. Cells were grown on glass coverslips and mounted on the imaging chamber. Cells were maintained in KRH buffer (see below) and temperature was maintained at 37° C. In other studies fixed cells were used. Cells on glass coverslips were washed with PBS and fixed for 20 min at room temperature using 4% paraformaldehyde in PBS/5% sucrose pH 7.2. After one wash with PBS coverslips were mounted on microscope slides with 40% glycerol in PBS.
(§3) In the first step the coding sequence of a modified form of GFP was modified by polymerase chain reaction (PCR) amplification. Using the amino-terminal primer 5′-[…]-3 the initiating Met of GFP was removed and both a Kpn I restriction site (underlined) and a 2-amino acid spacer (Gly-Asn) were introduced. Using the carboxy-terminal primer 5-[…]-3′ an Xba I restriction site (underlined) was introduced downstream of the stop codon of GFP. The amplified fragment of GFP digested with Kpn I and Xba I was subcloned into similarly digested pcDNA3 expression vector (Invitrogen). To obtain the α1B-adrenoceptor-GFP fusion proteins, the coding sequence of each form of the α1B-adrenoceptor was amplified by PCR. Using the amino-terminal primer 5′-[…]-3′, a Kpn I restriction site (underlined) was introduced upstream of the initiator Met. […] Finally, the GFP construct in pcDNA3 was digested with Kpn I and ligated together with the PCR product of the α1B-adrenoceptor amplification also digested with Kpn I. The open reading frames so produced represent the coding sequence of either the wild type or 3CAM α1B-adrenoceptor-GFPs. […]

[2] = biological target: T2, 3CAM hamster α1b-adrenoceptor/GFP fusion construct (Mesocricetus auratus, UniProt P18841, A293L/K290H/R288K); assay: Confocal microscopy, 3CAM α1b-adrenoceptor-GFP; format: cell-based; settings: 1 μM for 24h
T2 construct: expressed in transfected cells
T2 sequence (P18841 1-515 R288K/K290H/A293L): T1 sequence (P18841 1-515) with R288K, K290H, A293L
Description: as §1, §2, §3

[3] = biological target: T3, CAM α1b-adrenoceptor/GFP fusion protein (Mesocricetus auratus, UniProt P18841, A293L/K290H/R288K); assay: Plate fluorimetry, CAM α1b-adrenoceptor/GFP in HEK 293 cells; format: cell-based, hamster; settings: 22 hrs treatment, range in brackets, read-out: EC50 of up-regulation of fluorescence of CAM α1b-adrenoceptor/GFP
T3 construct: expressed in transfected cells
T3 sequence (P18841 1-515 R288K/K290H/A293L): T1 sequence (P18841 1-515) with R288K, K290H, A293L
Description: These cell lines were used to investigate ligand up-regulation of the CAM α1b-adrenoceptor/GFP fusion protein. Fusion protein upregulation was measured according to a gain in total cellular fluorescence in a plate based fluorimeter.
For experiments cells were seeded into black 96 well view plates (Costar) on the day before assay. […] Cells were incubated at 37° C. for 22 hours. After incubation fluorescence was detected using a Tecan Spectrafluor plus fluorimeter. To control for plate and media autofluorescence results were calculated by subtracting a blank plate reading from the fluorescence values obtained in drug treated cells.
The time course of ligand up-regulation of the CAM α1b-adrenoceptor/GFP fusion protein was also investigated. In this study cells were seeded and treated with drug as previously described but fluorescence in the blank plate and the cell plates were read at various time points between 2–31 hours after drug addition.

CAM β2-adrenoceptor-GFP = biological target: T4, CAM β2-adrenoceptor-GFP (Homo sapiens, UniProt P07550, H269K/K267R/L266S/L272A); assay: Confocal microscopy of CAM β2-adrenoceptor-GFP in HEK293 cells; format: cell-based; settings: 24h, 10^−5 M
T4 construct: GFP (modified form, Zernicka-Goetz et al. 1997); expressed in transfected cells

[4] = biological target: T5, wild-type α1b-adrenoceptor (Mesocricetus auratus, UniProt P18841); assay: [3H]prazosin specific binding to membranes after ligand treatment, wild type; format: cell-based, hamster; settings: FIG. 10C; [3H]prazosin 2 nM
T5 construct: expressed in transfected cells
T5 sequence (P18841 1-515): T1 sequence (P18841 1-515)
Description: (§4) Equivalent studies were performed on plates of cells which were then washed and harvested. Membranes were prepared and the specific binding capacity of a single concentration (2 nM) of [^3H]prazosin was then assessed (FIG. 10C).
(§5) HEK293 cells stably expressing each of the α1B-adrenoceptor-GFP fusion proteins were grown to confluence on 6 cm dishes. Prior to harvesting, cells were washed twice with 4 ml of ice-cold TE buffer (10 mM Tris, 0.1 mM EDTA pH 7.5) and then scraped into 1 ml of the same buffer. […] The suspension was centrifuged at 16000×g for 15 min and the resulting pellets resuspended in ice-cold TE buffer to final protein concentrations of 0.035–0.16 mg/ml.

3CAM α1b-adrenoceptor = biological target: T6, 3CAM α1b-adrenoceptor (Mesocricetus auratus, UniProt P18841, A293L/K290H/R288K); assay: [3H]prazosin specific binding to membranes after ligand treatment, 3CAM; format: cell-based, hamster; settings: FIG. 10C; [3H]prazosin 2 nM
T6 construct: expressed in transfected cells
T6 sequence (P18841 1-515 R288K/K290H/A293L): T1 sequence (P18841 1-515) with R288K, K290H, A293L
Description: as §4, §5

[5] = biological target: T7, PAR1mut/GFP fusion protein (Homo sapiens, UniProt P25116, A405G/G401A/L403A/M404G/N398G/Q402G/S399A/S400G/S406A/Y397A); assay: Agonist mediated down-regulation of PAR1mut/GFP in plate fluorimeter; format: cell-based; settings: 4 hours incubation
T7 construct: expressed in transfected cells
T7 sequence (P25116 22-425 Y397A/N398G/S399A/S400G/G401A/Q402G/L403A/M404G/A405G/S406A): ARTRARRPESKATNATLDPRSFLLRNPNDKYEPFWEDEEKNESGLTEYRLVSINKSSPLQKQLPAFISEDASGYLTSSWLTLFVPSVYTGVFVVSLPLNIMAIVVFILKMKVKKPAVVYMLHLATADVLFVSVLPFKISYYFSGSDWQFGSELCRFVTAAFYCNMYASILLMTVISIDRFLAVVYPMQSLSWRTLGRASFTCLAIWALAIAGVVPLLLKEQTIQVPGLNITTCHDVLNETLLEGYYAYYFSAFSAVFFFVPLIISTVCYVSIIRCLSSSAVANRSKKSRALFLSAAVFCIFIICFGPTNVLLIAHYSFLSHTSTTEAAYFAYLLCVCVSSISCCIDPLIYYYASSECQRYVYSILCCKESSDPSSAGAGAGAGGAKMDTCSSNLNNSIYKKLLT
Description: PAR1 receptor internalisation occurs through two mechanisms. […] This […] in the wild type receptor with the sequence […] (Shapiro and Coughlin, 1998). […] Cells were seeded into black 96 well view plates (Costar) the day before the experiment. The growth media was replaced with phenol red free DMEM/F12 (1:1) media containing 2 mM L-glutamine and either TRAP (10 μM-1 nM) or thrombin (1-0.0001 units/ml). The media also contained 0.5 mM Brilliant Black dye to absorb any media associated autofluorescence. […] To control for plate and media autofluorescence results were calculated by subtracting a blank plate reading from the fluorescence values obtained in drug treated cells.

| Compound | upregulation of wild type α1b-adrenoceptor/GFP (confocal) [1] | upregulation of fluorescence of 3CAM α1b-adrenoceptor/GFP (confocal) [2] | EC50 [3] | upregulation of fluorescence of CAM β2-adrenoceptor-GFP (confocal) (CAM β2-adrenoceptor-GFP) | also measured |
| --- | --- | --- | --- | --- | --- |
| CCC(C#N)(CCCNCCOc1ccccc1OC)c1cc(OC)c(OC)c(OC)c1 (stereo not drawn) [HV 723] | not wild type | Upregulation of the 3CAM | 417 nM |  |  |
| COc1cccc(OC)c1OCCNCC1COc2ccccc2O1 (stereo not drawn) [WB 4101] | not wild type | Upregulation of the 3CAM | 676 nM |  |  |
| CCCc1ccccc1OCC(O)CNC(C)C (stereo not drawn) [dihydroalprenolol] |  |  |  | Upregulation of fluoresence |  |
| Cc1ccc(N(CC2=NCCN2)c2cccc(O)c2)cc1 [phentolamine] | not wild type | Upregulation of the 3CAM | 170 nM |  |  |
| COc1cc2nc(N3CCN(C(=O)c4ccco4)CC3)nc(N)c2cc1OC [prazosin] |  |  |  | not recorded | effect on wild-type α1b-adrenoceptor level ([3H]prazosin specific binding) [4]: no effect; effect on 3CAM α1b-adrenoceptor level ([3H]prazosin specific binding) (3CAM α1b-adrenoceptor): upregulation |
| COC(=O)[C@@H]1[C@H]2C[C@H]3c4[nH]c5ccccc5c4CCN3C[C@@H]2CC[C@@H]1O [yohimbine] |  |  |  | not recorded |  |
| thrombin |  |  |  |  | maximum decrease (loss) in fluorescence of PAR1 mut/GFP construct [5]: about 5% |
